# From US20260069539A1, “LIPIDOID COMPOUNDS AND RELATED COMPOSITIONS AND USES” (Poseida Therapeutics, Inc., priority 2023, published 2026)
# Test system: liver cells
# Assay: In vivo LNP delivery of fLuciferase mRNA, bioluminescent imaging (BLI) at 4 hr
# Set-up: species or system BALB/C mice
# Conditions: for Mean Luciferase Flux: 0.5 mg/kg fLuc mRNA i.v., 4 hr; for Total Flux: 0.5 mg/kg fLuciferase mRNA intravenous, BLI at 4 hr
# Description: Adult female BALB/C mice (n=3/group) were intravenously administered 0.5 mg/kg of 5′-CleanCap—fLuciferase mRNA (TriLink Biotech) formulated with the LNP compositions shown in Table 6. One group of mice was treated with vehicle (PBS, Thermo Fisher Scientific, USA) as a negative control.
# (§1) The location and extent of luciferase expression in treated and control mice were determined at 4 hr for mRNA and 48 hr for DNA by bioluminescent imaging (BLI) of anesthetized mice using an IVIS Lumina in vivo imaging system (Perkin Elmer) according to the manufacturer's instructions. Briefly, mice were anesthetized using isoflurane in oxygen, and placed supine on a heated stage. Mice were then administered D-luciferin (Perkin-Elmer #122799) IP, and BLI was performed.
# as §1, with “hr” for “hr for mRNA and 48 hr for DNA”
# as §1, with “hr” for “hr for mRNA and 48 hr for DNA”
# The location and extent of luciferase expression in treated and control mice were determined at 4 hr by bioluminescent imaging (BLI) of anesthetized mice using an IVIS Lumina in vivo imaging system (Perkin Elmer) according to the manufacturer's instructions.
# Briefly, mice were anesthetized using isoflurane in oxygen, and placed supine on a heated stage. Mice were then administered D-luciferin (Perkin-Elmer #122799) IP, and BLI was performed.
# as §1, with “hr” for “hr for mRNA and 48 hr for DNA”
# [1] = Table 13 experiment, LNP with 50 % moles of the compound (DOPC 10/Chol 38.5/PEG-DMG 1.5, Lipid:RNA 80)
# [2] = LNP with 40.75 % moles of the compound (DOPC 5.0/Chol 51.75/PEG-DMG 2.5, Lipid:RNA 100)
# [3] = LNP with 43.17 % moles of the compound (DOPC 11.96/Chol 43.17/PEG-DMG 1.7, Lipid:RNA 100)
# [4] = LNP with 54.0 % moles of the compound (DOPC 10.0/Chol 35.0/PEG-DMG 1.0, Lipid:RNA 100)
# [5] = Example 104, experiment of Table 63
# [6] = Example 104, experiment of Table 64
# [7] = Example 104, experiment of Table 65
smiles,measurement,setting,value
CCCCCCCCC(CCCCCC)C(=O)OC1CCC(OC(=O)CCCCCN(CCO)CCCCCCCOC(=O)C2CCC(CCCCC)CC2)CC1 (centres unmarked) [COMPOUND NO. 33],Mean Luciferase Flux,[1],1.73E+10 p/s
CCCCCC(=O)OCC1CCC(COC(=O)CCN(CCCN(C)CCCN(CCC(=O)OCC2CCC(COC(=O)CCCCC)CC2)CCC(=O)OCC2CCC(COC(=O)CCCCC)CC2)CCC(=O)OCC2CCC(COC(=O)CCCCC)CC2)CC1 (centres unmarked) [COMPOUND NO. 8],Mean Luciferase Flux,[2],1.27E+11 p/s
same,Mean Luciferase Flux,[3],3.31E+11 p/s
same,Mean Luciferase Flux,[4],2.33E+11 p/s
CCCCC[C@H]1CC[C@H](C(=O)OCC(COC(=O)CCCCCN(CCCCCC(=O)OCC(COC(=O)[C@H]2CC[C@H](CCCCC)CC2)COC(=O)[C@H]2CC[C@H](CCCCC)CC2)C[C@@H](C)O)COC(=O)[C@H]2CC[C@H](CCCCC)CC2)CC1 [COMPOUND NO. 57],Total Flux,[5],9.69E+10 p/s
CCCCCCCCC(CCCCCC)C(=O)O[C@H]1CC[C@H](OC(=O)CCCCCN(CCCO)CCCCCC(=O)O[C@H]2CC[C@H](OC(=O)C(CCCCCC)CCCCCCCC)CC2)CC1 (some centres unmarked) [COMPOUND NO. 28],Mean Luciferase Flux,[1],3.28E+10 p/s
CCCCC[C@H]1CC[C@H](C(=O)OCC(COC(=O)CCCCCN(CCCCCC(=O)OCC(COC(=O)[C@H]2CC[C@H](CCCCC)CC2)COC(=O)[C@H]2CC[C@H](CCCCC)CC2)Cc2ccccc2)COC(=O)[C@H]2CC[C@H](CCCCC)CC2)CC1 [COMPOUND NO. 63],Total Flux,[6],3.48E+05 p/s
CCCCC[C@H]1CC[C@H](C(=O)OCC(COC(=O)CCCCCN(CCC)CCCCCC(=O)OCC(COC(=O)[C@H]2CC[C@H](CCCCC)CC2)COC(=O)[C@H]2CC[C@H](CCCCC)CC2)COC(=O)[C@H]2CC[C@H](CCCCC)CC2)CC1 [COMPOUND NO. 58],Total Flux,[6],4.38E+09 p/s
CCCCC[C@H]1CC[C@H](C(=O)OCC(COC(=O)CCCCCN(CCCCCC(=O)OCC(COC(=O)[C@H]2CC[C@H](CCCCC)CC2)COC(=O)[C@H]2CC[C@H](CCCCC)CC2)CC(C)O)COC(=O)[C@H]2CC[C@H](CCCCC)CC2)CC1 (mixture of isomers) [COMPOUND NO. 55],Total Flux,[5],7.89E+10 p/s
CCCCCCCCC(CCCCCCCC)OC(=O)[C@H]1CC[C@H](C(=O)OCCCCCN(CCO)CCCCCOC(=O)[C@H]2CC[C@H](C(=O)OC(CCCCCCCC)CCCCCCCC)CC2)CC1 [COMPOUND NO. 30],Mean Luciferase Flux,[1],2.54E+10 p/s
CCCCC[C@H]1CC[C@H](C(=O)OCC(COC(=O)CCCCCN(CCCCCC(=O)OCC(COC(=O)[C@H]2CC[C@H](CCCCC)CC2)COC(=O)[C@H]2CC[C@H](CCCCC)CC2)C[C@H](C)O)COC(=O)[C@H]2CC[C@H](CCCCC)CC2)CC1 [COMPOUND NO. 56],Total Flux,[5],9.88E+10 p/s
CCCCCCCCC(CCCCCCCC)OC(=O)C1CCC(C(=O)OCCCCCN(CCO)CCCCCCCOC(=O)C2CCC(CCCCC)CC2)CC1 (centres unmarked) [COMPOUND NO. 34],Mean Luciferase Flux,[1],1.87E+10 p/s
CCCCCCCCC(CCCCCC)C(=O)O[C@H]1CC[C@H](OC(=O)CCCCCN(CCO)CCCCCC(=O)O[C@H]2CC[C@H](OC(=O)C(CCCCCC)CCCCCCCC)CC2)CC1 (some centres unmarked) [COMPOUND NO. 27],Mean Luciferase Flux,[1],1.10E+10 p/s
CCCCC[C@H]1CC[C@H](C(=O)OCC(COC(=O)CCCCCN(CCCCCC(=O)OCC(COC(=O)[C@H]2CC[C@H](CCCCC)CC2)COC(=O)[C@H]2CC[C@H](CCCCC)CC2)C[C@H](O)CO)COC(=O)[C@H]2CC[C@H](CCCCC)CC2)CC1 [COMPOUND NO. 61],Total Flux,[6],1.04E+11 p/s
CCCCC[C@H]1CC[C@H](C(=O)CCCCN(CCCOC(=O)[C@H]2CC[C@H](CCCCC)CC2)CCCN(C)CCCN(CCCOC(=O)[C@H]2CC[C@H](CCCCC)CC2)CCCOC(=O)[C@H]2CC[C@H](CCCCC)CC2)CC1 [COMPOUND NO. 35],Mean Luciferase Flux,"Table 13 experiment, first line of compound 35, printed 50 % moles (Table 12: 40.75 % moles, Lipid:RNA 80)",2.35E+09 p/s
same,Mean Luciferase Flux,"Table 13 experiment, second line of compound 35, printed 50 % moles (Table 12: 40.75 % moles, Lipid:RNA 40)",3.13E+09 p/s
CCCCC[C@H]1CC[C@H](C(=O)OCC(COC(=O)CCCCCN(CCCCCC(=O)OCC(COC(=O)[C@H]2CC[C@H](CCCCC)CC2)COC(=O)[C@H]2CC[C@H](CCCCC)CC2)C(CO)CO)COC(=O)[C@H]2CC[C@H](CCCCC)CC2)CC1 [COMPOUND NO. 62],Total Flux,[7],2.20E+11 p/s
CC(C)CCCC1CCC(COC(=O)C(CCCN(C)CCCC(C(=O)OCC2CCC(CCCC(C)C)CC2)C(=O)OCC2CCC(CCCC(C)C)CC2)C(=O)OCC2CCC(CCCC(C)C)CC2)CC1 (centres unmarked) [COMPOUND NO. 43],Mean Luciferase Flux,"Table 14 experiment, LNP with 40.75 % moles of the compound (Lipid:RNA 40)",1.12E+09 p/s
same,Mean Luciferase Flux,"Table 14 experiment, LNP with 50 % moles of the compound (Lipid:RNA 80)",1.10E+09 p/s
CCCCC(CC)CCCCOC(=O)C(CCCN(CCCO)CCCC(C(=O)OCCCCC1CCCCC1)C(=O)OCCCCC1CCCCC1)C(=O)OCCCCC1CCCCC1 (centres unmarked) [COMPOUND NO. 44],Total Flux,[5],5.73E+08 p/s
CC(C)CCCC(=O)OCC1CCC(COC(=O)CCN(CCCN(C)CCCN(CCC(=O)OCC2CCC(COC(=O)CCCC(C)C)CC2)CCC(=O)OCC2CCC(COC(=O)CCCC(C)C)CC2)CCC(=O)OCC2CCC(COC(=O)CCCC(C)C)CC2)CC1 (centres unmarked) [COMPOUND NO. 7],Mean Luciferase Flux,[2],6.41E+10 p/s
same,Mean Luciferase Flux,[3],1.84E+11 p/s
same,Mean Luciferase Flux,[4],1.55E+11 p/s
O=C(OCCCCC1CCCCC1)C(CCCCCCN(CCCO)CCCCCCC(C(=O)OCCCCC1CCCCC1)C(=O)OCCCCC1CCCCC1)C(=O)OCCCCC1CCCCC1 [COMPOUND NO. 45],Total Flux,[5],2.42E+10 p/s
CCCCCC(=O)OCC1CCC(COC(=O)C(CCCN(CCCO)CCCC(C(=O)OCC2CCC(COC(=O)CCCCC)CC2)C(=O)OCC2CCC(COC(=O)CCCCC)CC2)C(=O)OCC2CCC(COC(=O)CCCCC)CC2)CC1 (centres unmarked) [COMPOUND NO. 49],Total Flux,[5],2.00E+11 p/s
O=C(CCCCCN(CCCCO)CCCCCC(=O)OCC(COC(=O)CCCCC1CCCCC1)COC(=O)CCCCC1CCCCC1)OCC(COC(=O)CCCCC1CCCCC1)COC(=O)CCCCC1CCCCC1 [COMPOUND NO. 67],Total Flux,[7],3.79E+11 p/s
CCCCC[C@H]1CC[C@H](C(=O)OCC(COC(=O)CCCCN(CCCCO)CCCCC(=O)OCC(COC(=O)[C@H]2CC[C@H](CCCCC)CC2)COC(=O)[C@H]2CC[C@H](CCCCC)CC2)COC(=O)[C@H]2CC[C@H](CCCCC)CC2)CC1 [COMPOUND NO. 73],Total Flux,[7],1.61E+11 p/s
CN(CCCN(CCC(=O)OCCOC(=O)CCCCC1CCCCC1)CCC(=O)OCCOC(=O)CCCCC1CCCCC1)CCCN(CCC(=O)OCCOC(=O)CCCCC1CCCCC1)CCC(=O)OCCOC(=O)CCCCC1CCCCC1 [COMPOUND NO. 5],Mean Luciferase Flux,[2],2.84E+11 p/s
same,Mean Luciferase Flux,[3],7.16E+10 p/s
same,Mean Luciferase Flux,[4],7.25E+08 p/s
CCCCC[C@H]1CC[C@H](C(=O)OCC(COC(=O)CCCCN(CCCO)CCCCC(=O)OCC(COC(=O)[C@H]2CC[C@H](CCCCC)CC2)COC(=O)[C@H]2CC[C@H](CCCCC)CC2)COC(=O)[C@H]2CC[C@H](CCCCC)CC2)CC1 [COMPOUND NO. 72],Total Flux,[7],2.40E+11 p/s
CCCCC[C@H]1CC[C@H](C(=O)OCCCCCCCN(CCO)CCCCCCCOC(=O)[C@H]2CC[C@H](CCCCC)CC2)CC1 [COMPOUND NO. 24],Mean Luciferase Flux,[1],3.46E+06 p/s
CCCCC[C@H]1CC[C@H](C(=O)OCCCCCN(CCCO)CCCOC(=O)[C@H]2CC[C@H](CCCCC)CC2)CC1 [COMPOUND NO. 22],Mean Luciferase Flux,[1],2.31E+07 p/s
CN(CCCN(CCC(=O)OCC1CCC(CCCCC2CCCCC2)CC1)CCC(=O)OCC1CCC(CCCCC2CCCCC2)CC1)CCCN(CCC(=O)OCC1CCC(CCCCC2CCCCC2)CC1)CCC(=O)OCC1CCC(CCCCC2CCCCC2)CC1 (centres unmarked) [COMPOUND NO. 2],Mean Luciferase Flux,[2],2.53E+07 p/s
CCCCC[C@H]1CC[C@H](C(=O)OCC(COC(=O)CCCCCN(CCCCCCO)CCCCCC(=O)OCC(COC(=O)[C@H]2CC[C@H](CCCCC)CC2)COC(=O)[C@H]2CC[C@H](CCCCC)CC2)COC(=O)[C@H]2CC[C@H](CCCCC)CC2)CC1 [COMPOUND NO. 52],Total Flux,[5],1.81E+11 p/s
